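Where inhibition never reached the appropriate level, the endpoint shown equals the highest concentration tested. Otherwise, values were interpolated linearly from a five-concentration, 48-hour dose response in 96-well plates. Here, GI50 denotes the concentration required for 50% inhibition of growth. TGI marks complete inhibition of growth.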
Experiments:
Assay in all cases: NCI anticancer screen, dose series, 48 h
[1] = test system: UO-31 renal
[2] = test system: NCI/ADR-RES ovarian
[3] = test system: LOX IMVI melanoma
[4] = test system: NCI-H522 lung
[5] = test system: CCRF-CEM leukemia
[6] = test system: NCI-H23 lung
[7] = test system: U251 CNS
[8] = test system: UACC-62 melanoma
[9] = test system: OVCAR-5 ovarian
[10] = test system: HOP-92 NSCLC

| SMILES | TGI [1] [µM] | TGI [2] [µM] | TGI [3] [µM] | TGI [4] [µM] | TGI [5] [µM] | TGI [6] [µM] | TGI [7] [µM] | TGI [8] [µM] | TGI [9] [µM] | TGI [10] [µM] | GI50 [1] [µM] | GI50 [2] [µM] | GI50 [3] [µM] | GI50 [4] [µM] | GI50 [5] [µM] | GI50 [6] [µM] | GI50 [7] [µM] | GI50 [8] [µM] | GI50 [9] [µM] | GI50 [10] [µM] |
| --- | --- | --- | --- | --- | --- | --- | --- | --- | --- | --- | --- | --- | --- | --- | --- | --- | --- | --- | --- | --- |
| CCCCCCCCCCCCCCCCCC(=O)OCC(COC(=O)CCCN)OC(=O)CCCN (configuration not stated) | 3.63 | 37 | 42.5 | 50.4 | > 100 | 31.9 | 40.8 | 35.3 | 29.4 | 26.6 |  |  |  |  |  |  |  |  |  |  |
| CN/N=C(\C)C(CN(C)C)C(c1ccccc1)c1c(O)c2ccccc2oc1=O (configuration not stated) | > 100 | > 100 | > 100 | > 100 | > 100 | > 100 | > 100 | > 100 | > 100 | 6.78 |  |  |  |  |  |  |  |  |  |  |
| O=C1/C(=C\c2ccccn2)c2ccccc2N1c1c(Cl)cccc1Cl | 3.11 | 6.95 | 3.21 | 4.81 | > 100 | 15.3 | 3.68 | 3.68 | 4.81 | 6.28 | 1.47 | 2.51 | 1.68 | 1.98 | 3.31 | 3.29 | 1.84 | 1.62 | 2.05 |  |
| NC(=O)c1cccc(Nc2nccc(Nc3cccc4[nH]ncc34)n2)c1 | > 25 | > 25 | > 18.4 | > 25 | > 25 | > 25 | > 25 | > 25 | > 25 | 12.2 | 12.4 | > 25 | 6.07 | 8.85 | 9.14 | 17.1 | 9.53 | 7.02 | 7.5 | 3 |
| CCN(CC)CCCC(C)N=C(C1=C(C(=NC(C)CCCN(CC)CC)c2cccc(OC)c2)C(=O)NC1=O)c1cccc(OC)c1 (configuration not stated) | 4.27 | 12.2 | 2.06 | 2.03 | 7.47 | 9.11 | 2.5 | 15 |  | 3.63 | 1.39 | 2.84 | 0.992 | 0.989 | 1.49 | 2.52 | 1.06 | 7.71 |  | 0.993 |
| O=C(/C=C/c1ccccc1)n1c(-c2ccc(Cl)cc2)nc2ccccc21 | 3.55 | 61.3 | 1.91 | 2.64 | 3.45 | 4.89 | 3.22 | 2.88 | 4.21 | 3.82 | 1.1 | 1.49 | 0.588 | 1.23 | 0.731 | 1.91 | 1.6 | 1.27 | 1.74 | 1.46 |
| Cc1nc(N2CCC3(CC2)CO[C@@H](C)[C@H]3N)c(CO)nc1Sc1ccnc(N)c1Cl | > 100 | > 100 | > 100 | > 100 | > 100 | > 100 | > 100 | > 100 | > 100 | 2.12 | 0.973 | 47.3 | 72.4 | 1.32 | > 91.3 | 0.329 | 3.92 | > 100 | > 100 | 0.184 |
| COc1ccc(C(=O)c2cc3c(N)c(C(=O)Nc4ccc(C)cc4)sc3nc2C)cc1 | 27.3 | 15.4 | > 100 | 11.2 | > 100 | 44 | 28.8 | > 100 | > 100 | 21.9 | 3.11 | 2.55 | 4.94 | 2.06 | 3.76 | 6.24 | 3.6 | 12.2 | 7.13 | 2.15 |
| Cc1ccc(C)c(C2NC(=O)c3ccccc3N2)c1 (configuration not stated) | > 100 | 8.37 | > 100 | 3.52 | > 25.5 | > 62.1 | 17.9 | > 70.3 | > 69.7 | > 100 |  |  |  |  |  |  |  |  |  |  |
| CN1C(=O)N[C@H]2[C@@H]3NC(=O)c4ccc(Br)n4[C@@H]3C[C@]21O | 6.75 | 2.22 | 3.37 | 0.31 | 0.327 | 1.42 | 1.55 | 1.18 | 6.3 | 1.28 | 1.81 | 0.386 | 0.369 | 0.0384 | 0.0252 | 0.0968 | 0.0714 | 0.0861 | 1.03 | 0.0955 |
| O=C1C=CC(=O)c2cc(Sc3ccccc3)c(=O)ccc21 | 30.5 | 42.1 | 27.7 | 5.96 | 9.43 | 37 | 38.5 | 30.4 | 36.3 | > 52.7 |  |  |  |  |  |  |  |  |  |  |
| CN(C)C(=O)OC(Cn1cncn1)(Cn1cncn1)c1ccc(Cl)cc1Cl | > 100 | > 100 | > 100 | > 100 | > 100 |  | > 100 |  | > 100 | > 100 |  |  |  |  |  |  |  |  |  |  |
| OCC(O)c1nc2ccc3[nH]ncc3c2c2c1CCCC2 (configuration not stated) | > 50 | 4.51 | 3.85 | 9.87 | > 50 | 2.46 | > 50 | 2.73 | > 50 |  | 1.55 | 1.34 | 1.1 | 1.5 | 1.62 | 1.07 | 1.65 | 0.96 | 1.53 |  |
| O=Cc1cccc2c1Oc1c(cccc1C(=O)O)S2 | > 100 | > 100 | > 100 | > 100 |  | > 100 | > 100 | > 100 | > 100 | > 100 |  |  |  |  |  |  |  |  |  |  |
| COc1ccc(C2SCC(=O)N2NC(=O)c2ccc(NC(C)=O)cc2)cc1 (configuration not stated) | > 100 | > 100 |  |  |  | > 100 | > 100 | > 100 | > 100 | 89.2 |  |  |  |  |  |  |  |  |  |  |
| COc1cccc(/C=C/C(=O)c2ccc(Cl)cc2Cl)c1 | > 50 | 33.1 | > 50 | > 50 |  | 28.7 | > 50 | 15.5 | 43.7 | 9.44 | 17.4 | 11.6 | 15.3 | 18 |  | 9.72 | 9.19 | 8.06 | 13.6 | 0.0134 |

Source: PubChem BioAssay (NCI)
